According to article PMC11789599, “Co‐Translational Deposition of N ^6‐Acetyl‐L‐Lysine in Nascent Proteins Contributes to the Acetylome in Mammalian Cells” (Advanced Science, 2024):

Columns and labels:
[1] = biological target: T1, Lysyl-tRNA synthetase (KARS) (Homo sapiens, UniProt Q15046); test: co-crystal structure at […] Å; MST Kd; also ATP consumption/AMP production by purified KARS; type: binding; parameters: gene KARS1; KARS70-580, C-terminal 6xHis
[2] = biological target: T1, Lysyl-tRNA synthetase (KARS); test: biochemical; parameters: gene KARS1

T1 sequence (Q15046 70-580): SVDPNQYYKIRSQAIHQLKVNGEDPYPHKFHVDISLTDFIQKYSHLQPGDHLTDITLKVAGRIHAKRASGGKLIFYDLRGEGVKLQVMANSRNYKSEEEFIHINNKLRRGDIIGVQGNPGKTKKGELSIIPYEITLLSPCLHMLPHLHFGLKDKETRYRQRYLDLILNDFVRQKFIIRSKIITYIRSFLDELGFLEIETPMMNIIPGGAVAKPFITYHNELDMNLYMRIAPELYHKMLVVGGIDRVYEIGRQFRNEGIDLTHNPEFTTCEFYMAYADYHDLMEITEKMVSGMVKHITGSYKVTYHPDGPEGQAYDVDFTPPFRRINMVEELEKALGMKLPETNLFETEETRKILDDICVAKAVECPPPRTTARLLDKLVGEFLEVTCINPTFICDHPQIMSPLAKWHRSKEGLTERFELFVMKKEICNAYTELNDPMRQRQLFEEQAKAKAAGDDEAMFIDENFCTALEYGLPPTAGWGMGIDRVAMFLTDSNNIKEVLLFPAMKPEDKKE

Row | Compound | Kd [1] [µM] | Kd [2] [µM]
1 | CC(=O)NCCCC[C@H](N)C(=O)O [AcK, N6-acetyl-L-lysine] | 407 ± 291 | –
2 | NCCCC[C@H](N)C(=O)O [L-lysine] | – | 118 ± 55.5
